Test results from patent publication US8598204B2, “1,2-dihydro-2-oxoquinoline compounds as 5-HT4 receptor ligands” (Suven Life Sciences Limited, priority 2009, dated 2013).
Structures can show the parent of a compound that is named as a salt.

Key:
[1] = target: T1, recombinant human 5-HT4 receptor (Homo sapiens, UniProt Q13639); assay: Determination of EC50 values for 5-HT4 receptor (CRE-luciferase reporter, CHO cells); assay type: cell-based; conditions: stable CHO cell line expressing recombinant human 5-HT4 receptor and pCRE-Luc reporter; 4 hours incubation; luciferase activity
T1 construct: expressed in transfected cells
Method: A stable CHO cell line expressing recombinant human 5-HT4 receptor and pCRE-Luc reporter system was used for cell-based assay. The assay offers a non-radioactive based approach to determine binding of a compound to GPCRs. In this specific assay, the level of intracellular cyclic AMP which is modulated by activation or inhibition of the receptor is measured. The recombinant cells harbor luciferase reporter gene under the control of cAMP response element.
The above cells were grown in 96 well clear bottom white plates in Hams F12 medium containing 10% fetal bovine serum (FBS). Prior to the addition of compounds or standard agonist, cells were serum starved overnight. Increasing concentrations of test compounds were added in OptiMEM medium to the cells. The incubation was continued at 37° C. in CO2 incubator for 4 hours. Medium was removed and cells were washed with phosphate buffered saline. The cells were lysed and luciferase activity was measured in a Luminometer. Luminescence units were plotted against the compound concentrations using Graphpad software. EC50 values of the compounds were defined as the concentration required in stimulating the luciferase activity by 50%.

[2] = system: novel object recognition (cognition) in rats; assay: Object recognition task model; assay type: in vivo, rat; conditions: 1 mg/kg p.o.
Method: The cognition-enhancing properties of compounds of this invention were estimated using a model of animal cognition: the object recognition task model.
Male Wister rats (230-280 grams) obtained from N. I. N. (National Institute of Nutrition, Hyderabad, India) was used as experimental animals. Four animals were housed in each cage. Animals were kept on 20% food deprivation before one day and given water ad libitum throughout the experiment and maintained on a 12 hours light/dark cycle. Also the rats were habituated to individual arenas for 1 hour in the absence of any objects.
One group of 12 rats received vehicle (1 mL/Kg) orally and another set of animals received compound of the formula (I) either orally or i.p., before one hour of the familiar (T1) and choice trial (T2).
The experiment was carried out in a 50×50×50 cm open field made up of acrylic. In the familiarization phase (T1), the rats were placed individually in the open field for 3 minutes, in which two identical objects (plastic bottles, 12.5 cm height×5.5 cm diameter) covered in yellow masking tape alone (a1 and a2) were positioned in two adjacent corners, 10 cm. from the walls. After 24 hours of the (T1) trial for long-term memory test, the same rats were placed in the same arena as they were placed in (T1) trial. Choice phase (T2) rats were allowed to explore the open field for 3 minutes in presence of one familiar object (a3) and one novel object (b) (Amber color glass bottle, 12 cm high and 5 cm in diameter). Familiar objects presented similar textures, colors and sizes. During the T1 and T2 trial, explorations of each object (defined as sniffing, licking, chewing or having moving vibrissae whilst directing the nose towards the object at a distance of less than 1 cm) were recorded separately by stopwatch. Sitting on an object was not regarded as exploratory activity, however, it was rarely observed.
T1 is the total time spent exploring the familiar objects (a 1+a2).
T2 is the total time spent exploring the familiar object and novel object (a3+b).
The object recognition test was performed as described by Ennaceur, A., Delacour, J., 1988, A new one-trial test for neurobiological studies of memory in rats—Behavioural data, Behav. Brain Res., 31, 47-59.

[3] = Rodent brain penetration study; assay type: in vivo; conditions: Wistar, rat; Wister/Male rats, 10 mg/kg, Oral, vehicle Water; brain/plasma; read-out: Steady State Brain Penetration (Cb/Cp)
Method: Male Wister rats (230-280 grams) obtained from NIN (National Institute of Nutrition, Hyderabad, India) was used as an experimental animal. Three animals were housed in each cage. Animals were given water and food ad libitum throughout the experiment, and maintained on a 12 hours light/dark cycle.
Brain penetration was determined in discrete manner in rats. One day prior to dosing day, male wistar rats (225-250 grams) were acclimatized. After acclimatization the rats were grouped according to the weight in each group, 3 animals were kept in individual cage and allowed free access to food and water. At each time point (0.5, 1, and 2 hours) n=3 animals were used.
NCE compound was dissolved in water and administered orally at (free base) 10 mg/kg. Blood samples were removed via, cardiac puncture by using isofurane anesthesia the animals were sacrificed to collect brain tissue. Plasma was separated and Brain samples were homogenized and stored frozen at −20° C. until analysis. The concentrations of the NCE compound in plasma and Brain were determined using LC-MS/MS method.
The NCE compounds were quantified in plasma and brain homogenate by validated LC-MS/MS method using solid phase extraction technique. NCE compounds were quantified in the calibration range of 1-500 ng/mL in plasma and brain homogenate. Study samples were analyzed using calibration samples in the batch and quality control samples spread across the batch. Extents of brain-blood ratio were calculated (Cb/Cp).

[4] = Rodent pharmacokinetic study; assay type: in vivo; conditions: Wistar, rat, plasma, Wister/Male rats, 5 mg/kg; for AUC(0-t) / Cmax / Tmax / half-life: vehicle Water
Method: Male Wister rats (230-280 grams) obtained from NIN (National Institute of Nutrition, Hyderabad, India) was used as an experimental animal. Three to five animals were housed in each cage. One day prior to dosing day, male wistar rats (225-250 grams) were anesthetized with isoflurane for surgical placement of jugular vein catheter. Animals were kept fasted over night and maintained on a 12 hours light/dark cycle. Three rats were dosed NCE (5 mg/Kg) orally and intravenously on day 0 and day 2.
At each time point blood was collected by jugular vein. Plasma was stored frozen at −20° C. until analysis. The concentrations of the NCE compound in plasma were determined using LC-MS/MS method. Schedule time points: Pre dose 0.25, 0.5, 1, 1.5, 2, 3, 4, 6, 8, 10, 12 and 24 hours after dosing (n=3). The NCE compounds were quantified in plasma by validated LC-MS/MS method using solid phase extraction technique. NCE compounds were quantified in the calibration range of 2-2000 ng/mL in plasma. Study samples were analyzed using calibration samples in the batch and quality control samples spread across the batch.
Pharmacokinetic parameters Cmax, Tmax, AUCt, T1/2 and Bioavailability were calculated by non-compartmental model using software WinNonlin version 5.0.1.

[5] = choice trial T2 24 hours after T1

T1 sequence (Q13639 whole entry): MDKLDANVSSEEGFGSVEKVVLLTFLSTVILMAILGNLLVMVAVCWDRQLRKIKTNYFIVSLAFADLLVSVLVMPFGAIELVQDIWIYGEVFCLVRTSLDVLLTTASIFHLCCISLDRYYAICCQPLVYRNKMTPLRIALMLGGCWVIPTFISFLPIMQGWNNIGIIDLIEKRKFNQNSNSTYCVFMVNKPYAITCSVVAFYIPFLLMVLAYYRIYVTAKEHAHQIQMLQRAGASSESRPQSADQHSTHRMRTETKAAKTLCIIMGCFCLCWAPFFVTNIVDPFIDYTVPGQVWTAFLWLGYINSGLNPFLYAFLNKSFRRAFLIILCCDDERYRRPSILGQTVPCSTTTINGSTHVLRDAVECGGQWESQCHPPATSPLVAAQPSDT

Molecule | EC50 [1] [nM] | other results
CC(C)N1C2CC3CC1CC(NC(=O)c1c(O)c4ccccc4n(C(C)C)c1=O)(C3)C2 [Example 15, N-(2-Isopropyl-2-azatricyclo[3.3.1.1^3,7]dec-5-yl)-4-hydroxy-1-isopropyl-2-oxo-1,2-dihydro-quinoline-3-carboxamide] | 2730 | –
CC(C)n1c(=O)c(C(=O)NCCCN2C3CC4CC(C3)CC2C4)c(O)c2cc(Cl)ccc21 [Example 8, N-[(2-Azatricyclo[3.3.1.1^3,7]dec-2-yl)propyl]-6-chloro-4-hydroxy-1-isopropyl-2-oxo-1,2-dihydroquinoline-3-carboxamide] | 3080 | –
CC(C)n1c(=O)c(C(=O)NC2C3CCN(CC3)C2Cc2ccccn2)c(O)c2ccccc21 (centres unmarked) [Example 13, N-[2-(Pyridin-2-ylmethyl)-1-azabicyclo[2.2.2]oct-3-yl]-4-hydroxy-1-isopropyl-2-oxo-1,2-dihydroquinoline-3-carboxamide] | 462 | –
CCCCN1CCC(NC(=O)c2c(O)c3ccccc3n(C(C)C)c2=O)CC1 [Example 20, N-(1-Butylpiperidin-4-yl)-4-hydroxy-1-isopropyl-2-oxo-1,2-dihydroquinoline-3-carboxamide hydrochloride] | 77 | –
CC(C)n1c(=O)c(C(=O)NCCN2C3CC4CC(C3)CC2C4)c(O)c2ccccc21 [Example 17, N-[(2-Azatricyclo[3.3.1.1^3,7]dec-2-yl)ethyl]-4-hydroxy-1-isopropyl-2-oxo-1,2-dihydroquinoline-3-carboxamide hydrochloride] | 1150 | –
CC(C)n1c(=O)c(C(=O)NCCCN2C3CC4CC2CC(c2ccccc2)(C4)C3)c(O)c2ccccc21 [Example 5, N-[(5-Phenyl-2-azatricyclo[3.3.1.1^3,7]dec-2-yl)propyl]-4-hydroxy-1-isopropyl-2-oxo-1,2-dihydroquinoline-3-carboxamide hydrochloride] | 1600 | –
CC(C)n1c(=O)c(C(=O)NCCCN2C3CC4CC(C3)CC2C4)c(O)c2cc(Br)ccc21 [Example 10, N-[(2-Azatricyclo[3.3.1.1^3,7]dec-2-yl)propyl]-6-bromo-4-hydroxy-1-isopropyl-2-oxo-1,2-dihydroquinoline-3-carboxamide] | 2800 | –
CC(C)n1c(=O)c(C(=O)NC2C3CCN(CC3)C2Cc2ccccc2)c(O)c2ccccc21 (centres unmarked) [Example 16, N-(2-Benzyl-1-azabicyclo[2.2.2]oct-3-yl)-4-hydroxy-1-isopropyl-2-oxo-1,2-dihydroquinoline-3-carboxamide] | 3920 | –
CCN1C2CC3CC1CC(CNC(=O)c1c(O)c4ccccc4n(C(C)C)c1=O)(C3)C2.Cl [Example 19, N-(2-Ethyl-2-azatricyclo[3.3.1.1^3,7]dec-5-ylmethyl)-4-hydroxy-1-isopropyl-2-oxo-1,2-dihydroquinoline-3-carboxamide hydrochloride] | 645 | Inference [2]: Active; Exploration time mean ± S.E.M, Familiar object [2, 5]: 8.83 ± 1.54 s; Exploration time mean ± S.E.M, Novel object [2, 5]: 14.09 ± 1.56 s
CC(C)n1c(=O)c(C(=O)NC2CCN(C3C4CC5CC(C4)CC3C5)C2)c(O)c2ccccc21 (centres unmarked) [Example 3, N-[1-(Tricyclo[3.3.1.1^3,7]dec-2-yl)pyrrolidin-3-yl]-4-hydroxy-1-isopropyl-2-oxo-1,2-dihydroquinoline-3-carboxamide] | 1110 | –
CC(C)n1c(=O)c(C(=O)NC23CC4CC2CC(N2CCCC2)(C4)C3)c(O)c2ccccc21 (centres unmarked) [Example 21] | 476 | –
CC(C)n1c(=O)c(C(=O)NC2C3CCN(CC3)C2Cc2cccnc2)c(O)c2ccccc21 (centres unmarked) [Example 12, N-[2-(Pyridin-3-ylmethyl)-1-azabicyclo[2.2.2]oct-3-yl]-4-hydroxy-1-isopropyl-2-oxo-1,2-dihydroquinoline-3-carboxamide] | 972 | –
CC(C)Cn1c(=O)c(C(=O)NCCCN2C3CC4CC(C3)CC2C4)c(O)c2ccccc21 [Example 2, N-[(2-Azatricyclo[3.3.1.1^3,7]dec-2-yl)propyl]-4-hydroxy-1-isobutyl-2-oxo-1,2-dihydroquinoline-3-carboxamide hydrochloride] | 4020 | –
CC(C)n1c(=O)c(C(=O)NCCCN2C3CC4CC(C3)CC2C4)c(O)c2cc(F)ccc21 [Example 9, N-[(2-Azatricyclo[3.3.1.1^3,7]dec-2-yl)propyl]-6-fluoro-4-hydroxy-1-isopropyl-2-oxo-1,2-dihydroquinoline-3-carboxamide] | 935 | –
CC(C)n1c(=O)c(C(=O)NCCCN2C3CC4CC(C3)CC2C4)c(O)c2cc(N)ccc21 [Example 11, N-[(2-Azatricyclo[3.3.1.1^3,7]dec-2-yl)propyl]-6-amino-4-hydroxy-1-isopropyl-2-oxo-1,2-dihydroquinoline-3-carboxamide] | 3000 | –
CC(C)n1c(=O)c(C(=O)NC23CC4CC(C2)N(C)C(C4)C3)c(O)c2ccccc21 [Example 14, N-(2-Methyl-2-azatricyclo[3.3.1.1^3,7]dec-5-yl)-4-hydroxy-1-isopropyl-2-oxo-1,2-dihydro-quinoline-3-carboxamide] | 307 | Kp [3]: 2.97 ± 0.94; bioavailability ([4]; Oral versus Intravenous): 28 ± 3%; AUC(0-t) ([4]; Intravenous): 820 ± 247 ng·h/mL; Cmax ([4]; Intravenous): 523 ± 57 ng/mL; Tmax ([4]; Intravenous): 0.08 h; half-life ([4]; Intravenous): 3.31 ± 1.47 h; AUC(0-t) ([4]; Oral): 223 ± 50 ng·h/mL; Cmax ([4]; Oral): 67 ± 17 ng/mL; Tmax ([4]; Oral): 0.42 ± 0.14 h; half-life ([4]; Oral): 1.67 ± 0.27 h
CC(C)n1c(=O)c(C(=O)NCCCN2CC3CC4CC2CN(C4)C3)c(O)c2ccccc21 (centres unmarked) [Example 6, N-[(1,4-Diazatricyclo[4.3.1.1^3,8]undec-4-yl)propyl]-4-hydroxy-1-isopropyl-2-oxo-1,2-dihydro-quinoline-3-carboxamide] | 667 | –
N-[(2-Azatricyclo[3.3.1.1^3,7]dec-2-yl) propyl]-4-hydroxy-1-isobutyl-6-methoxy-2-oxo-1,2-dihydroquinoline-3-carboxamide [Example 7] | 1000 | –
CCCCN1C2CC3CC1CC(NC(=O)c1c(O)c4ccccc4n(C(C)C)c1=O)(C3)C2 [Example 18, N-(2-Butyl-2-azatricyclo[3.3.1.1^3,7]dec-5-yl)-4-hydroxy-1-isopropyl-2-oxo-1,2-dihydroquinoline-3-carboxamide hydrochloride] | 958 | –
